The target of this series is ATP-dependent translocase ABCB1 (Homo sapiens, UniProt P08183). The experiment in a line: TP_TRANSPORTER: increase in VCR intracellular accumulation (VCR: 0.03 uM, MS-073: 3 uM) in K562/ADM cells. The class given is functional, cell-based. Particulars: k562/adr.
Sequence of ATP-dependent translocase ABCB1 (P08183 whole entry): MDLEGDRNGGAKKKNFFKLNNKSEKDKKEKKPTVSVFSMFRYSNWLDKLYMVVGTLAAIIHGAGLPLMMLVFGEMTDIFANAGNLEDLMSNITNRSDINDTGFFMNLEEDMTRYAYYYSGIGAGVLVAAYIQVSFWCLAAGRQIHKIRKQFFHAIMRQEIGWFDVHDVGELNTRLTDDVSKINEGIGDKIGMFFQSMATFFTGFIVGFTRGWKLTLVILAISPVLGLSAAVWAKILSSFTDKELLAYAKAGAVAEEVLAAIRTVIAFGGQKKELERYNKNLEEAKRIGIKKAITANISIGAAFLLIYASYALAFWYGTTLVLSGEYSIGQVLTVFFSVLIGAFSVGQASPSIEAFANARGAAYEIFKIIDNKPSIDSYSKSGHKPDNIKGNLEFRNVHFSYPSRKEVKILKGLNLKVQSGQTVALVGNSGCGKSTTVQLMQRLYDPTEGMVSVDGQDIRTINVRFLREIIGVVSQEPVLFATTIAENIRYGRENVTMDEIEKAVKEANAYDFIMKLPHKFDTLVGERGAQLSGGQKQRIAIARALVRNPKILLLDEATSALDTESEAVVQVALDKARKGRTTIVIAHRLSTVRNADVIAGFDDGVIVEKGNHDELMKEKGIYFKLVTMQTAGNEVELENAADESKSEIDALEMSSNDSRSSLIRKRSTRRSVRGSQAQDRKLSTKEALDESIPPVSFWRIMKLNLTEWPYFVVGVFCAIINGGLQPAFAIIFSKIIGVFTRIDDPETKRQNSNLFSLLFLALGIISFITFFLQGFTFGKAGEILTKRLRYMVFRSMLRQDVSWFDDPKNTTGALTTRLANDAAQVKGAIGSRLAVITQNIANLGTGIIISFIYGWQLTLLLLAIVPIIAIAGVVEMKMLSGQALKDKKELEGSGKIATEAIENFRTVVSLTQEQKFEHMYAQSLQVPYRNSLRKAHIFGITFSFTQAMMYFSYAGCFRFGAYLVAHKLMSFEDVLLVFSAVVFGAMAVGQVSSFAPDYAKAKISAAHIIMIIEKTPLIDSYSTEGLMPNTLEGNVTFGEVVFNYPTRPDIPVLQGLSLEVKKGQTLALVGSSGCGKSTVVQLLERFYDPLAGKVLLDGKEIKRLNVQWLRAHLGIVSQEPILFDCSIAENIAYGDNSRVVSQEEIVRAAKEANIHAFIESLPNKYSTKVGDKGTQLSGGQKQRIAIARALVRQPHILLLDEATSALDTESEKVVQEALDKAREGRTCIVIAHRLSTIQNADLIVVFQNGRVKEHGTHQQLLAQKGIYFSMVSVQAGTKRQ

Regarding `OC(COc1cccc2ncccc12)CN1CCN(C2c3ccccc3CCc3ccccc32)CC1` (stereo unspecified), the Activity entry is “inhibitor [+]”.

The values above are taken from ChEMBL document CHEMBL2073976, “Circumvention of multidrug resistance by a newly synthesized quinoline derivative, MS-073” (Cancer Res, 1991).
